{
  "source": "PubChem BioAssay AID1963960",
  "about": "(Molecular Pharmacology Branch, DTP, NCI, 2024)",
  "tested_on": "MDA-MB-468 spheroids with HUVEC/MSC, viability",
  "assay": "Anticancer human tumor MDA-MB-468 cell line growth inhibition [PI3K];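 note: spheroids exposed to agents for seven days before readout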;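 for viability, T/C: 100% = DMSO vehicle control viability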",
  "conditions": "for pIC50: curve of first compound; for viability, T/C: stronger effect = lower value",
  "source_text": "Combinatorial screen of targeted agents with the PI3K inhibitors inavolisib, alpelisib, duvelisib, and copanlisib in multi-cell type tumor spheroids\nA high-throughput screen of multi-cell type tumor spheroids was designed to identify active combinations of targeted small molecules and PI3K pathway inhibitors. Complex spheroids include a stromal component modeled by human endothelial cells (HUVEC) and fibroblasts modeled by human mesenchymal stem cells (MSCs). The concentration ranges selected for each drug and investigational agent were based upon clinically achievable concentrations if the clinical Cmax of the agent was known.\nCompounds. The drugs and investigational agents: inavolisib (NSC800729), alpelisib (NSC765974), duvelisib (NSC772469), copanlisib (NSC816437), ipatasertib (NSC767898), afuresertib (NSC778305), talazoparib (NSC767125), sapanisertib (NSC764658), selumetinib (NSC741078), tovorafenib (DAY101, NSC766906), vemurafenib (NSC761431), ravoxertinib (NSC781343), sotorasib (NSC818433), MRTX1133 (NSC 836407), abemaciclib (NSC 768073), palbociclib (NSC758247), venetoclax (NSC 766270), SY5609 (NSC837396), enzalutamide (NSC755605), and darolutamide (NSC825331), were obtained from the National Cancer Institute (NCI) Developmental Therapeutics Program Chemical Repository. The FDA-approved anticancer drug set is available from the NCI Developmental Therapeutics Program. […] The stock solutions were prepared in dimethyl sulfoxide (DMSO, Sigma-Aldrich, St. Louis, MO, cat. D2650) at 800-fold the tested concentration and stored at -70 degrees C prior to their use. All drugs and investigational agents were tested over a range starting from a high concentration at or near the clinical Cmax and decreasing in half-log increments. If the clinical Cmax for an agent had not been determined, the highest concentration tested was 10 microM.\nCell Culture. All cells were maintained in an incubator at 37 degrees C and 5% CO2 with 95% humidity. The PDC lines were cultured according to standard operating procedures established by the NCI PDMR (https://pdmr.cancer.gov/sops/default.htm). All PDCs were thawed and cultured in Matrigel-coated flasks prepared with a working solution of 1X Ham's F-12 nutrient mix, without supplementation (Invitrogen, Waltham, MA, cat. 11765054), 100 U/mL penicillin-streptomycin (Invitrogen, cat. 15140122), and 2.5% Matrigel (Corning Inc., Corning, NY, cat. 354248) for the first three passages. The 354836-022-R-J1-PDC, 475296-252-R-J1-PDC, and 997726-040-R-J2-PDC lines were cultured in 6A media, which includes advanced DMEM/F-12 (Thermo Fisher Scientific, cat. 12634028), 10 mM HEPES (Thermo Fisher Scientific, cat. 15630080), 1X GlutaMAX supplement (Thermo Fisher Scientific, cat. 35050061), 0.1 mg/mL primocin (InvivoGen, San Diego, CA, cat. ant-pm-2), 10% defined fetal bovine serum, heat inactivated (HyClone Laboratories Inc., Logan, UT, cat. SH30070.03HI), 50% L-WRN conditioned media (ATCC, cat. CRL-3276), 1.25 mM N-Acetyl-L-cysteine (Sigma-Aldrich, cat. A9165), 10 mM nicotinamide (Sigma-Aldrich, cat. N0636), 1X B-27 supplement (Thermo Fisher Scientific, cat. 17504044), 1X N-2 supplement (Thermo Fisher Scientific, cat. 17502048), and 10 microM Y-27632 dihydrochloride (Tocris Bioscience, Bristol, United Kingdom, cat. 1254). The 624824-186-R-J2-PDC line was cultured in 6C/Colon 1B media, which includes all 6A media components plus 50 ng/mL human EGF recombinant protein (Thermo Fisher Scientific, cat. PHG0311). […]",
  "note": "pIC50: −log10 of the molar value.",
  "data": [
    {"smiles": "CC(=O)c1c(C)c2cnc(Nc3ccc(N4CCNCC4)cn3)nc2n(C2CCCC2)c1=O", "note": "+ CC(Nc1ccc2c(c1)OCCn1cc(N3C(=O)OCC3C(F)F)nc1-2)C(N)=O", "values": [
      {"measurement": "pIC50", "setting": "second compound 0.00316 µM", "result": "< 7.00"},
      {"measurement": "pIC50", "setting": "second compound 0.01 µM", "result": "< 7.00"},
      {"measurement": "pIC50", "setting": "second compound 0.0316 µM", "result": "< 7.00"},
      {"measurement": "pIC50", "setting": "second compound 0.1 µM", "result": "< 7.00"},
      {"measurement": "pIC50", "setting": "second compound 0.316 µM", "result": "< 7.00"},
      {"measurement": "pIC50", "setting": "second compound 1 µM", "result": "< 7.00"},
      {"measurement": "viability, T/C", "setting": "second compound 0.00316 µM, first compound 0.000316 µM", "result": 96.1, "unit": "%"},
      {"measurement": "viability, T/C", "setting": "second compound 0.00316 µM, first compound 0.001 µM", "result": 95.3, "unit": "%"},
      {"measurement": "viability, T/C", "setting": "second compound 0.00316 µM, first compound 0.00316 µM", "result": 96.8, "unit": "%"},
      {"measurement": "viability, T/C", "setting": "second compound 0.00316 µM, first compound 0.01 µM", "result": 102, "unit": "%"},
      {"measurement": "viability, T/C", "setting": "second compound 0.00316 µM, first compound 0.0316 µM", "result": 97.4, "unit": "%"},
      {"measurement": "viability, T/C", "setting": "second compound 0.00316 µM, first compound 0.1 µM", "result": 89.9, "unit": "%"},
      {"measurement": "viability, T/C", "setting": "second compound 0.01 µM, first compound 0.000316 µM", "result": 105, "unit": "%"},
      {"measurement": "viability, T/C", "setting": "second compound 0.01 µM, first compound 0.001 µM", "result": 91, "unit": "%"},
      {"measurement": "viability, T/C", "setting": "second compound 0.01 µM, first compound 0.00316 µM", "result": 93.6, "unit": "%"},
      {"measurement": "viability, T/C", "setting": "second compound 0.01 µM, first compound 0.01 µM", "result": 110, "unit": "%"},
      {"measurement": "viability, T/C", "setting": "second compound 0.01 µM, first compound 0.0316 µM", "result": 105, "unit": "%"},
      {"measurement": "viability, T/C", "setting": "second compound 0.01 µM, first compound 0.1 µM", "result": 97.1, "unit": "%"},
      {"measurement": "viability, T/C", "setting": "second compound 0.0316 µM, first compound 0.000316 µM", "result": 103, "unit": "%"},
      {"measurement": "viability, T/C", "setting": "second compound 0.0316 µM, first compound 0.001 µM", "result": 92.7, "unit": "%"},
      {"measurement": "viability, T/C", "setting": "second compound 0.0316 µM, first compound 0.00316 µM", "result": 89, "unit": "%"},
      {"measurement": "viability, T/C", "setting": "second compound 0.0316 µM, first compound 0.01 µM", "result": 89, "unit": "%"},
      {"measurement": "viability, T/C", "setting": "second compound 0.0316 µM, first compound 0.0316 µM", "result": 97, "unit": "%"},
      {"measurement": "viability, T/C", "setting": "second compound 0.0316 µM, first compound 0.1 µM", "result": 79.3, "unit": "%"},
      {"measurement": "viability, T/C", "setting": "second compound 0.1 µM, first compound 0.000316 µM", "result": 86.5, "unit": "%"},
      {"measurement": "viability, T/C", "setting": "second compound 0.1 µM, first compound 0.001 µM", "result": 84.8, "unit": "%"},
      {"measurement": "viability, T/C", "setting": "second compound 0.1 µM, first compound 0.00316 µM", "result": 101, "unit": "%"},
      {"measurement": "viability, T/C", "setting": "second compound 0.1 µM, first compound 0.01 µM", "result": 88.4, "unit": "%"},
      {"measurement": "viability, T/C", "setting": "second compound 0.1 µM, first compound 0.0316 µM", "result": 96, "unit": "%"},
      {"measurement": "viability, T/C", "setting": "second compound 0.1 µM, first compound 0.1 µM", "result": 89.2, "unit": "%"},
      {"measurement": "viability, T/C", "setting": "second compound 0.316 µM, first compound 0.000316 µM", "result": 89.5, "unit": "%"},
      {"measurement": "viability, T/C", "setting": "second compound 0.316 µM, first compound 0.001 µM", "result": 72.1, "unit": "%"},
      {"measurement": "viability, T/C", "setting": "second compound 0.316 µM, first compound 0.00316 µM", "result": 79.1, "unit": "%"},
      {"measurement": "viability, T/C", "setting": "second compound 0.316 µM, first compound 0.01 µM", "result": 87.5, "unit": "%"},
      {"measurement": "viability, T/C", "setting": "second compound 0.316 µM, first compound 0.0316 µM", "result": 83.8, "unit": "%"},
      {"measurement": "viability, T/C", "setting": "second compound 0.316 µM, first compound 0.1 µM", "result": 84.1, "unit": "%"},
      {"measurement": "viability, T/C", "setting": "second compound 1 µM, first compound 0.000316 µM", "result": 84.1, "unit": "%"},
      {"measurement": "viability, T/C", "setting": "second compound 1 µM, first compound 0.001 µM", "result": 81.6, "unit": "%"},
      {"measurement": "viability, T/C", "setting": "second compound 1 µM, first compound 0.00316 µM", "result": 73, "unit": "%"},
      {"measurement": "viability, T/C", "setting": "second compound 1 µM, first compound 0.01 µM", "result": 90.6, "unit": "%"},
      {"measurement": "viability, T/C", "setting": "second compound 1 µM, first compound 0.0316 µM", "result": 66.7, "unit": "%"},
      {"measurement": "viability, T/C", "setting": "second compound 1 µM, first compound 0.1 µM", "result": 82, "unit": "%"}
    ]}
  ]
}
